Data on 3 molecules can be found in patent publication US8598228B2, “Cinnamic acid ascorbates” (Merck Patent GmbH, priority 2009, dated 2013).

Data set [1] in a line: UV absorption maximum of product. The format is physicochemical. The protocol: 20 g of (E)-3-(2,4,5-trimethoxyphenyl)acrylic acid (84 mmol; 1 eq.) are dissolved in 100 ml of dimethylformamide in an argon-flushed three-necked flask, and 11.1 g of diisopropylcarbodiimide (88.1 mmol, 1.05 eq.) are added. After 30 min, ascorbic acid (22.2 g, 126 mmol; 1.5 eq.) dissolved in 45 ml of dimethylformamide is added dropwise. After 30 min at 0° C., the mixture is stirred at room temperature for a further 6 hours. The reaction solution is evaporated to dryness, suspended in ethyl acetate/hexane 1:1 and filtered, and the product is precipitated as a pale-yellow solid by addition of hexane (λmax=354 nm).

The conditions of data set [2]: cited from earlier work; for specific absorbance at the absorbance maximum (ε): MeOH.

For the molecule `COc1cc(OC)c(OC)cc1/C=C/C(=O)OC[C@@H](O)[C@H]1OC(=O)C(O)=C1O` [Example 4, (R)-2-((R)-3,4-dihydroxy-5-oxo-2,5-dihydrofuran-2-yl)-2-hydroxyethyl (E)-3-(2,4,5-trimethoxyphenyl)acrylate], the λmax in data set [1] worked out at 354 nm.

Consider `CCCCC(CC)COC(=O)/C=C\c1ccc(OC)cc1` (stereo not drawn) [cis-EHMC], for which, in data set [2], the “specific absorbance at the absorbance maximum (ε)” value is listed as 13,500 and the “λmax(MeOH)” value is 304 nm.

In the case of `CCCCC(CC)COC(=O)/C=C/c1ccc(OC)cc1` (stereo not drawn) [trans-EHMC], in data set [2], the “specific absorbance at the absorbance maximum (ε)” value is 24,550 and the “λmax(MeOH)” value was 309 nm.
